Read-outs that look alike come from different tables or passages of the source. Some results are limits rather than exact numbers.

The target in this assay is T1, Human autotaxin enzyme (Homo sapiens, UniProt Q13822).
T1 construct: purchased R&D System
In words: Evaluation of autotaxin inhibitor, Method C (Test Example 3): 18:0 Lyso PC, choline assay, Resorufin fluorescence. The class given is biochemical. To be noted: human autotaxin, 18:0 Lyso PC substrate. An outline of the steps:
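Human autotaxin in Tris-HCl pH 7.5, 150 mM NaCl, 5 mM MgCl2, 0.05% Triton X-100 reacted 2 h at room temperature with 18:0 Lyso PC (200 μM solution added). Released choline detected via choline oxidase/peroxidase/Amplex-type reagent, resorufin fluorescence (ex 531/em 598 nm); inhibition vs no-compound and no-enzyme controls, concentration-response curve.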

The mark [1] stands for this setting: Assay Method C (Test Example 3), read-out: Inhibitory Activity (autotaxin enzyme inhibitory activity, IC50 class).
The mark [2] stands for this setting: Assay Method C, read-out: Inhibitory Activity.

Take `CCCCCn1c(OC2CNC2)cc(=O)n2cc(-c3ccc(Cl)cc3)nc12` [Compound 537]: under setting [1], the IC50 lay in the range of 10 to 100 nM.

Regarding `CCCCCn1c(-c2ccc(C(=O)NC(C)(C)CO)cc2)cc(=O)n2cc(-c3ccc(Cl)cc3)nc12` [Compound 477], the IC50 under setting [1] was in the range of 10 to 100 nM.

For `CCCCCn1c(-c2ccc(C(=O)N3CCOCC3)cc2)cc(=O)n2cc(-c3ccc(Cl)cc3)nc12` [Compound 473], the IC50 under setting [1] was 10 to 100 nM.

On to `CCCCCn1c(N2CCC3(CC2)COC3)cc(=O)n2cc(-c3ccc(Cl)cc3)nc12` [Compound 716], for which the IC50 under setting [1] was 100 to 1000 nM.

On to `CCCCCn1c(N2CCC3(CNC3)C2)cc(=O)n2cc(-c3ccc(Cl)cc3)nc12` [Compound 330], for which, under setting [1], the IC50 is 100 to 1000 nM.

On to `CCCCCn1c(N2CCC[C@H]2C(=O)N2CCC[C@H]2C(=O)O)cc(=O)n2cc(-c3ccc(Cl)cc3)nc12` [Compound 337], for which the IC50 under setting [1] was in the range of 10 to 100 nM.

Regarding `CCCCCn1c(N2CCC[C@H]2C(=O)N(C)CC(=O)N(C)CC(=O)OC)cc(=O)n2cc(-c3ccc(Cl)cc3)nc12` [Compound 684], the IC50 under setting [1] lay within 10 to 100 nM.

As for `CCCCCn1c(N2CCC[C@H]2C(=O)N[C@H](C(=O)O)C(c2ccccc2)c2ccccc2)cc(=O)n2cc(-c3ccc(Cl)cc3)nc12` [Compound 727], under setting [1], the IC50 lay in the range of 100 to 1000 nM.

As to `CCCCCn1c(OCC2CCCN2C(=O)OC(C)(C)C)cc(=O)n2cc(-c3ccc(Cl)cc3)nc12` (stereo not shown) [Compound 554], under setting [1], the IC50 is 100 to 1000 nM.

As for `CCCCCn1c(N2CCC[C@H]2C(=O)N2CCC[C@@H](C(=O)O)C2)cc(=O)n2cc(-c3ccc(Cl)cc3)nc12` [Compound 673], the IC50 under setting [1] was below 10 nM.

In the case of `CCCCCn1c(N2CCC[C@H]2C(=O)N[C@@H]2CCCNC2=O)cc(=O)n2cc(-c3ccc(Cl)cc3)nc12` [Compound 711], the IC50 under setting [1] was 100 to 1000 nM.

For `CCCCCn1c(N(C)Cc2ccccc2)cc(=O)n2cc(-c3ccc(Cl)cc3)nc12` [Compound 219], the IC50 under setting [1] was 10 to 100 nM.

In the case of `CCCCCn1c(N2CCC[C@H]2C(=O)N2CCC[C@H](C(=O)O)C2)cc(=O)n2cc(-c3ccc(Cl)cc3)nc12` [Compound 677], under setting [1], the IC50 was below 10 nM.

`CCCCCn1c(N2CCNC[C@@H]2C(=O)O)cc(=O)n2cc(-c3ccc(Cl)cc3)nc12` [Compound 659]: the IC50 under setting [1] was above 1000 nM.

Take `CCCCCn1c(N2CCC[C@@H](c3ccccc3)C2)cc(=O)n2cc(-c3ccc(Cl)cc3)nc12` [Compound 813]: under setting [2], the IC50 is above 1000 nM.

For the compound `CCCCCn1c(N2CCN(C(=O)OC(C)(C)C)C[C@@H]2C(=O)O)cc(=O)n2cc(-c3ccc(Cl)cc3)nc12` [Compound 640], the IC50 under setting [1] is above 1000 nM.

As for `CCCCCn1c(OC2CN(CC(=O)OC(C)(C)C)C2)cc(=O)n2cc(-c3ccc(Cl)cc3)nc12` [Compound 574], under setting [1], the IC50 lay within 10 to 100 nM.

As to `CCCCCn1c(N2C[C@@H](F)C[C@H]2C(=O)NCCC(=O)O)cc(=O)n2cc(-c3ccc(Cl)cc3)nc12` [Compound 580], the IC50 under setting [1] was below 10 nM.

Consider `N#CCCCCn1c(NCc2ccc(C(=O)O)cc2)cc(=O)n2cc(-c3ccc(C#N)cc3)nc12` [Compound 288], for which, under setting [1], the IC50 lay in the range of 10 to 100 nM.

On to `CCn1c(N2CCC[C@H]2C(=O)NC(C)(C)C(=O)O)cc(=O)n2cc(-c3ccc(Cl)cc3)nc12` [Compound 759], for which, under setting [1], the IC50 lay in the range of 10 to 100 nM.

As to `CCCCCn1c(N2CCC[C@H]2C(=O)NCC(C)C(=O)OC)cc(=O)n2cc(-c3ccc(Cl)cc3)nc12` (stereo partly shown) [Compound 571], under setting [1], the IC50 was in the range of 100 to 1000 nM.

Regarding `CCCCCn1c(-c2ccc(C(=O)NCCO)cc2)cc(=O)n2cc(-c3ccc(Cl)cc3)nc12` [Compound 390], under setting [1], the IC50 lay in the range of 10 to 100 nM.

Regarding `CCCCCn1c(-c2ccc(C(=O)NC3COC3)cc2)cc(=O)n2cc(-c3ccc(Cl)cc3)nc12` [Compound 490], the IC50 under setting [1] was below 10 nM.

As for `CCCCCn1c(C2=CCN(S(C)(=O)=O)CC2)cc(=O)n2cc(-c3ccc(Cl)cc3)nc12` [Compound 547], the IC50 under setting [1] is 10 to 100 nM.

With `CCCCCn1c(-c2cccc(F)c2)cc(=O)n2cc(-c3ccc(Cl)cc3)nc12` [Compound 444], the IC50 under setting [1] was in the range of 100 to 1000 nM.

Regarding `CCCCCn1c(N2CCC[C@H]2C(=O)NCCCN2CCN(C)CC2)cc(=O)n2cc(-c3ccc(Cl)cc3)nc12` [Compound 649], the IC50 under setting [1] lay in the range of 10 to 100 nM.

Regarding `CCCCCn1c(N2CCC[C@@H]2CC(=O)NCCC(=O)O)cc(=O)n2cc(-c3ccc(Cl)cc3)nc12` [Compound 622], under setting [1], the IC50 fell in the range of 100 to 1000 nM.

In the case of `CCn1c(N2CCC[C@H]2C(=O)N[C@@H](C)C(=O)O)cc(=O)n2cc(-c3ccc(Cl)cc3)nc12` [Compound 760], under setting [1], the IC50 was 10 to 100 nM.

Consider `CCCCCn1c(-c2ccc(C(=O)NCCc3ccccn3)cc2)cc(=O)n2cc(-c3ccc(Cl)cc3)nc12` [Compound 508], for which the IC50 under setting [1] lay within 10 to 100 nM.

Consider `CCOC(=O)c1cccc(Cc2cn(CC3CC3)c3nc(-c4ccc(Cl)cc4)cn3c2=O)c1` [Compound 822], for which the IC50 under setting [2] is above 1000 nM.

For the compound `CCCCCn1c(C)c(CC(=O)OCC)c(=O)n2cc(-c3ccc(Cl)cc3)nc12` [Compound 202], the IC50 under setting [1] fell in the range of 10 to 100 nM.

As to `CCCCCn1c(N2CCC[C@H]2C(=O)NCCC(=O)N2CCOCC2)cc(=O)n2cc(-c3ccc(Cl)cc3)nc12` [Compound 343], the IC50 under setting [1] lay within 10 to 100 nM.

Regarding `Cn1c(N2C[C@H](O)C[C@H]2C(=O)N[C@H](C(=O)O)C(C)(C)C)cc(=O)n2cc(-c3ccc(Cl)cc3)nc12` [Compound 774], the IC50 under setting [1] fell in the range of 10 to 100 nM.

Take `CCCCCn1c(N2CCC[C@H]2C(=O)NCC(=O)OC)cc(=O)n2cc(-c3ccc(Cl)cc3)nc12` [Compound 816]: the IC50 under setting [2] was 10 to 100 nM.

On to `CCCCCn1c(-c2ccc(C(=O)NCCN3CCNC3=O)cc2)cc(=O)n2cc(-c3ccc(Cl)cc3)nc12` [Compound 516], for which the IC50 under setting [1] lay in the range of 10 to 100 nM.

Take `CCCCCn1c(N2CCC[C@H]2C(=O)Nc2cc(O)no2)cc(=O)n2cc(-c3ccc(Cl)cc3)nc12` [Compound 799]: under setting [2], the IC50 lay within 10 to 100 nM.

In the case of `CCCCCn1c(-c2cccnc2)cc(=O)n2cc(-c3ccc(Cl)cc3)nc12` [Compound 407], the IC50 under setting [1] fell in the range of 10 to 100 nM.

As to `CCn1c(N2CCC[C@H]2C(=O)N[C@H](C(=O)O)C(C)(C)C)cc(=O)n2cc(-c3ccc(Cl)cc3)nc12` [Compound 758], under setting [1], the IC50 is 10 to 100 nM.

With `CCCCCn1c(-c2ccc(S(=O)(=O)N3CCOCC3)cc2)cc(=O)n2cc(-c3ccc(Cl)cc3)nc12` [Compound 430], under setting [1], the IC50 was in the range of 10 to 100 nM.

Regarding `O=C(O)[C@H](Cc1ccccc1)NC(=O)[C@@H]1CCCN1c1cc(=O)n2cc(-c3ccc(Cl)cc3)nc2n1Cc1ccccc1` [Compound 743], under setting [1], the IC50 was below 10 nM.

As for `CCCCCn1c(N2CCC[C@H]2C(=O)N2CCCC(C(=O)OCC)C2)cc(=O)n2cc(-c3ccc(Cl)cc3)nc12` (stereo partly shown) [Compound 696], the IC50 under setting [1] was 100 to 1000 nM.

Regarding `CCCCCn1c(-c2ccc(C(=O)NCCNC(=O)OCc3ccccc3)cc2)cc(=O)n2cc(-c3ccc(Cl)cc3)nc12` [Compound 363, benzyl 2-(4-(2-(4-chlorophenyl)-5-oxo-8-pentyl-5,8-dihydroimidazo[1,2-a]pyrimidin-7-yl)benzamide)ethylcarbamate], the IC50 under setting [1] was in the range of 10 to 100 nM.

Take `CCCCCn1c(N2CC[C@H](C(=O)O)C2)cc(=O)n2cc(-c3ccc(Cl)cc3)nc12` [Compound 670]: the IC50 under setting [1] lay within 10 to 100 nM.

Regarding `CCCCCn1c(N(CCOCCOC)C(C)=O)cc(=O)n2cc(-c3ccc(Cl)cc3)nc12` [Compound 562], the IC50 under setting [1] was in the range of 100 to 1000 nM.

Take `CCCCCn1c(N2CCC[C@H]2C(=O)Nc2cc(O)[nH]n2)cc(=O)n2cc(-c3ccc(Cl)cc3)nc12` [Compound 788]: the IC50 under setting [2] is above 1000 nM.

Turning to `CCCCCn1c(-c2ccc(C(=O)NCC(C)=O)cc2)cc(=O)n2cc(-c3ccc(Cl)cc3)nc12` [Compound 500], the IC50 under setting [1] was 10 to 100 nM.

Turning to `Cn1c(N2CCC[C@H]2C(=O)NCC(=O)O)cc(=O)n2cc(-c3ccc(Cl)cc3)nc12` [Compound 768], under setting [1], the IC50 was above 1000 nM.

In the case of `CCCCCn1c(N2CCC[C@@]2(C)C(=O)NCC(=O)O)cc(=O)n2cc(-c3ccc(Cl)cc3)nc12` [Compound 635], the IC50 under setting [1] was above 1000 nM.

`CCCCCn1c(-c2cnccc2OC)cc(=O)n2cc(-c3ccc(Cl)cc3)nc12` [Compound 455]: the IC50 under setting [1] lay in the range of 100 to 1000 nM.

Consider `CCCCCn1c(-c2ccc(C(=O)NCCn3ccnc3)cc2)cc(=O)n2cc(-c3ccc(Cl)cc3)nc12` [Compound 514], for which the IC50 under setting [1] is below 10 nM.

In the case of `CCCCCn1c(-c2ccc(S(=O)(=O)NCCO)cc2)cc(=O)n2cc(-c3ccc(Cl)cc3)nc12` [Compound 412], under setting [1], the IC50 was 10 to 100 nM.

On to `CCCCCn1c(N2CCC[C@H]2C(=O)NCCCN(C)C)cc(=O)n2cc(-c3ccc(Cl)cc3)nc12` [Compound 646], for which the IC50 under setting [1] is above 1000 nM.

As to `CCCCCn1c(N2C[C@H](F)C[C@H]2C(=O)NCCC(=O)OCC)cc(=O)n2cc(-c3ccc(Cl)cc3)nc12` [Compound 591], the IC50 under setting [1] lay in the range of 100 to 1000 nM.

Consider `CCCCCn1c(N2CCCCC2c2ccccc2)cc(=O)n2cc(-c3ccc(Cl)cc3)nc12` (stereo not shown) [Compound 803], for which, under setting [2], the IC50 is above 1000 nM.

Regarding `CCCCCn1c(N2CCC[C@H]2C(=O)N[C@H](CCCC)C(=O)O)cc(=O)n2cc(-c3ccc(Cl)cc3)nc12` [Compound 738], the IC50 under setting [1] was below 10 nM.

Regarding `CCCCCn1c(N2CCC[C@H]2C(=O)N[C@@H](Cc2ccccc2)C(=O)O)cc(=O)n2cc(-c3ccc(Cl)cc3)nc12` [Compound 740], the IC50 under setting [1] was below 10 nM.

Regarding `O=C(Cc1cn(CCCC(F)(F)F)c2nc(-c3ccc(Cl)cc3)cn2c1=O)NCc1nn[nH]n1` [Compound 858], the IC50 under setting [2] lay in the range of 10 to 100 nM.

Regarding `CCCCCn1c(N2CCC[C@H]2C(=O)N[C@@H](C)C(=O)O)cc(=O)n2cc(-c3ccc(Cl)cc3)nc12` [Compound 675], the IC50 under setting [1] was below 10 nM.

On to `CCCCCn1c(N2CCC[C@H]2C(=O)N[C@H](Cc2ccccc2)C(=O)O)cc(=O)n2cc(-c3ccc(Cl)cc3)nc12` [Compound 725], for which, under setting [1], the IC50 is 10 to 100 nM.

Turning to `CCCCCn1c(N2CCC[C@H]2C(=O)NC(C)C(=O)OC)cc(=O)n2cc(-c3ccc(Cl)cc3)nc12` (stereo partly shown) [Compound 685], under setting [1], the IC50 was below 10 nM.

With `CCCCCn1c(-c2ccc(C(=O)Nc3ccc(OC)cc3)cc2)cc(=O)n2cc(-c3ccc(Cl)cc3)nc12` [Compound 471], the IC50 under setting [1] lay in the range of 100 to 1000 nM.

Values taken from patent publication US20160002247A1, “8-SUBSTITUTED IMIDAZOPYRIMIDINONE DERIVATIVE HAVING AUTOTAXIN INHIBITORY ACTIVITY” (THE UNIVERSITY OF TOKYO, priority 2013, published 2016).
